Assay results reported in patent US20060013880A1, “Formulation stabilizer for proton pump inhibitors” (priority 2004, published 2006).

Experimental: This standardized stress study simulates degradation during long-term storage under high, but naturally occurring humidity levels. • 1) Dry binary mixture was prepared by accurately weighing 30 mg of lansoprazole ( Lot # A10344, purchased from ITF Chemical, LTDA, of Polo Petrochimico, Brazil) into a 20 ml head space-gas chromatography vial. A stabilizer was also weighed and added into the vial. The stabilizer tested in the experiments included the polymeric bases: cholestyramine chloride ( Lot# 038167, Dow Chemical), cholestyramine resin in hydroxide form (prepared from cholestyramine chloride as described in Example 1), Eudragit E-PO powder (lot# G030131033, Rohm Gmbh, Germany), and chitosan powder (Mutchler inc., Harrington, N.J.). […] The lansoprazole and stabilizer were mixed by vortexing for 30 seconds. • 2) A second set of dry binary mixtures were prepared in a head space-gas chromatography vial with a glass insert. […] Ten microliters of the diluted samples were analyzed by HPLC to quantitate the remaining lansoprazole using freshly prepared external lansoprazole standard solution. […]

Stabilization effect for lansoprazole (in words): significant stabilization effect
Substance: cholestyramine hydroxide
